Patent publication US9108993B2, “Pyrazole derivatives as sphingosine 1-phosphate (S1P) receptor modulators” (Allergan, Inc., priority 2013, dated 2015)

Target: T1, human S1P1 receptor (Homo sapiens, UniProt P21453)
T1 construct: expressed in transfected cells; membranes were used
Test: GTP γ35S binding assay for S1P1 activity
Type: biochemical
Conditions: membranes of cells stably expressing the S1P1 receptor, agonist potency
Experimental: Compounds were synthesized and tested for S1P1 activity using the GTP γ^35S binding assay. These compounds may be assessed for their ability to activate or block activation of the human S1P1 receptor in cells stably expressing the S1P1 receptor.
GTP γ^355 binding was measured in the medium containing (mM) HEPES 25, pH 7.4, MgCl2 10, NaCl 100, dithiothreitol 0.5, digitonin 0.003%, 0.2 nM GTP γ^35 S, and 5 μg membrane protein in a volume of 150 μl. Test compounds were included in the concentration range from 0.08 to 5,000 nM unless indicated otherwise. Membranes were incubated with 100 μM 5′ adenylylimidodiphosphate for 30 min, and subsequently with 10 μM GDP for 10 min on ice. Drug solutions and membrane were mixed, and then reactions were initiated by adding GTP γ^35S and continued for 30 min at 25° C. Reaction mixtures were filtered over Whatman GF/B filters under vacuum, and washed three times with 3 mL of ice-cold buffer (HEPES 25, pH7.4, MgCl2 10 and NaCl 100). Filters were dried and mixed with scintillant, and counted for ^35S activity using a β-counter. Agonist-induced GTP γ^35S binding was obtained by subtracting that in the absence of agonist. Binding data were analyzed using a non-linear regression method. In case of antagonist assay, the reaction mixture contained 10 nM S1P in the presence of test antagonist at concentrations ranging from 0.08 to 5000 nM.

T1 sequence (P21453 whole entry): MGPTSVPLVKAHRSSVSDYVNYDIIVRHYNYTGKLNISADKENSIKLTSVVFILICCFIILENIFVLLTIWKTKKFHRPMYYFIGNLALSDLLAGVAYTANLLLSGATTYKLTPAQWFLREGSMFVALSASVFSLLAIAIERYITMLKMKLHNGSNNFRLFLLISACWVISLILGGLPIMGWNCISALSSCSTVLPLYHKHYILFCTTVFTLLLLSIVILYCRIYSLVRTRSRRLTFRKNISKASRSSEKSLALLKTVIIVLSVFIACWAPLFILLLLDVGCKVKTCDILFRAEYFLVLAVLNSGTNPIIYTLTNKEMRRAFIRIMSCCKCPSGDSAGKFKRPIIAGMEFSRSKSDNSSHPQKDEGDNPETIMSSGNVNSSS

Structure (SMILES): Cc1nn(C(=O)CCc2ccc(CNCCC(=O)O)cc2)c2c1C1C(C2)C1(C)C (stereo not shown) [Compound 1, 3-({4-[3-oxo-3-(3,4,4-trimethyl-3b,4,4a,5-tetrahydro-1H-cyclopropa[3,4]cyclopenta[1,2-c]pyrazol-1-yl)propyl]benzyl}amino)propanoic acid]
- EC50: 262 nM
